{"source": "patent US20240165196A1", "about": "“Beta-Lactamase Inhibitors” (VIB VZW, priority 2021, published 2024)", "key": {"[1]": {"tested_on": "SHV beta-lactamase in strain expressing SHV-154", "assay": "western blot of inclusion body (IB) fraction for SHV", "format": "cell-based, E. coli", "details": "12 μM peptide in PBS, 120 min", "protocol": "(§1) FIGS. 3A-3P. […] Three replicates are shown for each condition. […] A single representative image is shown. […] Three replicates are shown for each condition. (FIG. 3E) [Left] […] [Middle] […] [Right] […] A single representative image is shown. […] A single representative image is shown. […] A single representative image is shown. […] A single representative blot is shown. […] 106 cells were analysed for the plot.\n(§2) Moreover, we confirmed the presence of the protein in the correct band using mass spectrometry proteomics. We repeated this with a strain expressing SHV-154, blotting with a polyclonal rabbit antibody raised against the recombinant SHV enzyme described above (FIG. 3K).\n(§3) The overnight culture of bacteria was centrifuged for 30 min at 4,000×g and cells were washed with physiological water (NaCl 0.9%). Bacterial cells were treated by peptide at the appropriate concentration for at least 2 h at 37 C. The bacterial pellets were washed with 10 mL buffer A (50 mM HEPES, pH 7.5, 300 mM NaCl, 5 mM β-mercaptoethanol, 1.0 mM EDTA) and centrifuged at 4° C. for 30 min at 4,000×g. The supernatant was discarded and 20 mL of buffer B (buffer A plus 1 tablet of the protease and phosphatase Inhibitor Cocktail (ab201119, Abcam, UK) was added to the bacterial pellet. In order to break the cells, a High-Pressure Homogenizer (Glen Creston Ltd) with the pressure set to 20,000-25,000 psi was used on ice, and in addition, the suspensions were sonicated (Branson Digital sonifier 50/60 Hz) on ice with alternating 2 min cycle (15 pulses at 50% power with 30 s pauses on ice, until completing 2 min total sonication time). The lysed cells were centrifuged at 4° C. for 30 min at 11,000×g. The precipitated fraction was afterward re-suspended with 10 mL buffer D (buffer A plus 0.8% (V/V) Triton X-100, 0.1% sodium deoxycholate) and the suspension was sonicated to ensure the pellet is completely dissolved. This step was repeated three times. Centrifugation was performed at 4° C. for 30 min at 11,000×g. Finally, to solubilize IBs, the pellet was suspended in 500 ul of buffer F (50 mM HEPES, pH 7.5, 8.0 M urea) of precipitated fraction."}, "[2]": {"tested_on": "E. coli TEM-104", "assay": "checkerboard assay (FICI), peptide versus penicillin G", "format": "cell-based", "details": "strain with TEM; FICI below 0.5 = synergy", "source_text": "(§4) FIGS. 2A-2M. (FIG. 2A) TEM mutations and their effects on stability (total energy) as predicted by FoldX. […] Dashed line indicates a total energy difference of 0.5 kcal/mol, the FoldX cut-off above which mutations are considered to be destabilizing. (FIG. 2B) Barplot mapping mutations in (FIG. 2A) to the TEM sequence and indicating occurrence. […] The bar heights correspond to the number of times a mutation occurs across different TEM variants (right-hand y-axis). The color coding is identical to that in (FIG. 2A). Red line indicates the TANGO scores (indicated on the left-hand y-axis), with peaks corresponding to APRs. (FIG. 2C) Mapping of mutations in (FIG. 2A) and (FIG. 2B) to the TEM structure (pdb 1xpb). Protein surface is shown in gray, color coding of mutations is identical to (FIG. 2A) and (FIG. 2B). (FIGS. 2D, 2E, and 2F) Temperature-dependent evolution of the Right-Angle Light Scattering (RALS) intensity during a temperature ramp, similar as in FIG. 1F for key mutants of TEM1, namely TEM-10 (FIG. 2D), TEM-30 (FIG. 2E) and TEM-155 (FIG. 2F). Experiments were shown in triplicate, single repeat is shown. (FIG. 2G) Schematic representation of the structure of the peptides. APR—Aggregation Prone Region, R—Arginine. (FIG. 2H) Ribbon representation of the superposition of the crystal structures of TEM (green, pdb id 1bt5) and SHV (blue, pdb id 1shv). The catalytic site of the beta-lactamase activity is indicated and location of APR3 is shown in red. (FIG. 2I) TANGO aggregation score and alignment of APR3 in TEM and SHV. (FIG. 2J) Fractional Inhibitory Concentration Index determination of 5 peptides versus penicillin on E. coli TEM-104. […] FICI values below 0.5 indicate synergy. Values between 0.5 and 1.0 indicate additivity and values greater than 1 indicate indifference between the combined substances. (FIG. 2K) Same as J for E. coli SHV-11. (FIG. 2L) Same as J for a kanamycin resistant E. coli strain. (FIG. 2M) FICI values for the TEM3.2 peptide on a range of E. coli strains.\n(§5) Moreover, the core sequence of peptide TEM3.0 also occurs in the structurally related SHV β-lactamase ([…]). Although the C-terminal extension residues H and N have been replaced with physicochemically similar R and Q, respectively (FIG. 2H). […] To quantify the synergy between these four peptides and penicillin G, we performed a so-called checkerboard assay, which allows to compare the activity of two test compounds co-incubated (here peptide and a beta-lactam antibiotic), to their individual activities in isolation. The result from the assay is quantified as the Fractional Inhibitory Concentration Index (FICI), and it is generally accepted that values below 0.5 indicate synergistic effects between the compounds. As a control, we generated a peptide using the same design, but based on a previously identified APR from the β-galactosidase enzyme (BGAL)^16 from E. coli (APR=SVIIWSL, peptide sequence=[…]) that has a MIC value>100 μg/mL on E. coli strain UZ_TEM104. We evaluated the synergy of the peptides with penicillin G in clinical E. coli isolates carrying the TEM ([…]) or SHV enzymes ([…]). […] As a further control, we also performed a checkerboard assay with an E. coli strain that was resistant to the aminoglycoside kanamycin and observed no synergy between this unrelated antibiotic and our peptides (FIG. 2L), in line with the notion that we are inhibiting a beta-lactamase but not the aminoglycoside degrading enzyme. […] The list of strains included some that harbored only TEM or SHV, but others contained additional Ambler Class A (CTX-M or […]) or Class B (VIM and NDM) beta-lactamases. […] In contrast, the presence of the NDM-type […], that does have a high affinity for Ampicillin and that is completely distinct in sequence and structure from TEM and SHV, seemed to completely prevent the effect of the peptide on the beta-lactam sensitivity of the strains in which it occurred (see also further). […]"}, "[3]": {"tested_on": "E. coli SHV-11", "assay": "checkerboard assay (FICI), peptide versus penicillin G", "format": "cell-based", "details": "strain with SHV-11; FICI below 0.5 = synergy", "source_text": "as §4, §5"}, "[4]": {"tested_on": "TEM beta-lactamase in E. coli UZ_TEM104", "assay": "western blot of inclusion body (IB) fraction for TEM", "format": "cell-based", "details": "12 μM peptide in PBS, 120 min", "protocol": "as §1, §2, §3"}}, "data": [{"substance": "Ac-RLTAFLHNRRPRLTAFLHNRR-NH2 [TEM3.0]", "values": [{"measurement": "accumulation of the SHV enzyme in inclusion bodies (western blot)", "setting": "[1]", "result": "not"}, {"measurement": "synergy with penicillin G (FICI)", "setting": "[2]", "result": "clear synergy"}, {"measurement": "synergy with penicillin G (FICI)", "setting": "[3]", "result": "not in a strain containing the SHV-11 enzyme"}, {"measurement": "enrichment of the TEM protein in inclusion bodies (western blot)", "setting": "[4]", "result": "clear enrichment of the TEM protein in IBs"}]}, {"substance": "Ac-RLTAFLHNRRPRLTAFLRQRR-NH2 [TEM3.2]", "values": [{"measurement": "accumulation of the SHV enzyme in inclusion bodies (western blot)", "setting": "[1]", "result": "accumulates in IBs"}, {"measurement": "synergy with penicillin G (FICI)", "setting": "[2]", "result": "synergy"}, {"measurement": "synergy with penicillin G (FICI)", "setting": "[3]", "result": "synergy"}, {"measurement": "enrichment of the TEM protein in inclusion bodies (western blot)", "setting": "[4]", "result": "clear enrichment of the TEM protein in IBs"}]}]}
